The results in this text go back to article PMC6076408, “Differential modulation of human GABAC-ρ1 receptor by sulfur-containing compounds structurally related to taurine” (BMC Neuroscience, 2018).

Holding throughout (format): cell-based
For test [1], the target named is T1, human GABAC-ρ1 receptor (Homo sapiens, UniProt P24046).
T1 construct: expressed in transfected cells; host or cells: Xenopus laevis oocytes (mRNA injection)
Description: Voltage-clamp: modulation of GABA-induced currents by co-applied SCC-tau. Conditions: for IC50: read-out: IC50 (decrease of GABA-activated current); for EC50: EC50 (potentiation of GABA current). Here is the method: (§1) All the animals were handled in accordance with guidelines of the National Institutes of Health Guide for Care and Use of Laboratory Animals and with the approval of the Institutional Animal Care and Use Committee of the National University of Mexico. We used Ethyl 3-aminobenzoate methanesulfonate (MS-222) at 0.17% for 30 min, to anesthetize the Xenopus laevis frogs. The oocytes were manually removed and enzymatically defolliculated at room temperature using collagenase type I (0.3 μg/μl) for 45 min. Later, oocytes were kept in Barth’s medium (in mM): 88, NaCl; 1, KCl; 0.33, […]; 0.41, CaCl2; 0.82, MgSO4; 2.4, NaHCO3; 5, HEPES; pH 7.4 and 0.1 mg/ml gentamicin sulfate. After 24 h, 0.5 μg/μl of human GABAC-ρ1R mRNA was injected in vegetal hemisphere of the oocyte, and electrophysiological recordings were obtained 2–3 days after injection.
(§2) Membrane currents elicited by GABA and SCC-tau were recorded using the two-microelectrode voltage-clamp technique. Oocytes were placed in a chamber, with a volume of 500 μl, and impaled with two microelectrodes previously filled with 3 M KCl (0.5–2.5 MΩ) and clamped at − 60 mV. […] All recordings were done at 20–23 °C in a chamber continuously perfused at 5–10 ml/min of Ringer solution (in mM): 115, NaCl; 2, KCl; 1.8, CaCl2; 5, HEPES, pH 7.4. All drugs were purchased from SIGMA-ALDRICH (San Louis Missouri, USA). […] The pH of all solutions was adjusted to 7.4.
(§3) Results are reported as mean ± S.E. of the values obtained from several cells, each value being the average of measurements in different cells. Data from each experiment were collected from at least seven oocytes. Agonist concentration–response curves were constructed by measuring the maximum response evoked by each agonist concentration. […] The half-inhibitory concentration (IC50) of Homo was estimated by fitting the following equation: A=Amax/(1+10^[[agonist]-logEC50) . Differences among groups were statistically analyzed by ANOVA and Tukey–Kramer post-test, and were considered significant when P < 0.05. Control responses to GABA were obtained before and after each drug application to account for possible shifts in the amplitude of the control current. To determine the time constants for the activation (τact) and deactivation (τdeac) of GABA-, Homo- and Hypo-currents responses, a decay function of the form: I(τ) = exp(− t/τ d) + C, where I is the current and t is time, was fit to the experimental data (Origin 6.0 software; Northampton, MA). Differences between groups were statistically analyzed by ANOVA and a Tukey–Kramer post-test, and were considered significant at the level P < 0.05.

Test [2] addresses T1, human GABAC-ρ1 receptor. Description: Two-microelectrode voltage-clamp: currents activated by GABA or SCC-tau in oocytes expressing GABAC-ρ1R. The conditions noted are these: for Hill coefficient (nH) / EC50: agonist alone; for Hill coefficient (nH): dose-response relationship; for EC50: Xenopus laevis oocytes clamped at −60 mV; for activation time of the currents (τact) / deactivation time (τdeac): currents activated by GABA, Hypo or Homo. As for the experimental part:
as §1
Oocytes were placed in a chamber, with a volume of 500 μl, and impaled with two microelectrodes previously filled with 3 M KCl (0.5–2.5 MΩ) and clamped at − 60 mV. […] All recordings were done at 20–23 °C in a chamber continuously perfused at 5–10 ml/min of Ringer solution (in mM): 115, NaCl; 2, KCl; 1.8, CaCl2; 5, HEPES, pH 7.4. All drugs were purchased from SIGMA-ALDRICH (San Louis Missouri, USA). […] The pH of all solutions was adjusted to 7.4.
Results are reported as mean ± S.E. of the values obtained from several cells, each value being the average of measurements in different cells. Data from each experiment were collected from at least seven oocytes. Agonist concentration–response curves were constructed by measuring the maximum response evoked by each agonist concentration. […] The half-inhibitory concentration (IC50) of Homo was estimated by fitting the following equation: A=Amax/(1+10^[[agonist]-logEC50) . Differences among groups were statistically analyzed by ANOVA and Tukey–Kramer post-test, and were considered significant when P < 0.05. […] Differences between groups were statistically analyzed by ANOVA and a Tukey–Kramer post-test, and were considered significant at the level P < 0.05.

Test [3] addresses T1, human GABAC-ρ1 receptor. Description: Voltage-clamp: inhibition of GABA- and SCC-tau-induced currents by TPMPA and picrotoxin. As for the experimental part: as §1, §2, §3
[4] abbreviates: receptor activated by 3 µM GABA.
The mark [5] stands for this setting: receptor activated by 70 µM Homo.
[6] abbreviates: receptor activated by 3 mM Hypo.

One may read the IC50 as the point on the concentration scale where inhibition reaches its midpoint. By EC50 is commonly meant the concentration giving half of the maximal effect.

T1 sequence (P24046 22-479): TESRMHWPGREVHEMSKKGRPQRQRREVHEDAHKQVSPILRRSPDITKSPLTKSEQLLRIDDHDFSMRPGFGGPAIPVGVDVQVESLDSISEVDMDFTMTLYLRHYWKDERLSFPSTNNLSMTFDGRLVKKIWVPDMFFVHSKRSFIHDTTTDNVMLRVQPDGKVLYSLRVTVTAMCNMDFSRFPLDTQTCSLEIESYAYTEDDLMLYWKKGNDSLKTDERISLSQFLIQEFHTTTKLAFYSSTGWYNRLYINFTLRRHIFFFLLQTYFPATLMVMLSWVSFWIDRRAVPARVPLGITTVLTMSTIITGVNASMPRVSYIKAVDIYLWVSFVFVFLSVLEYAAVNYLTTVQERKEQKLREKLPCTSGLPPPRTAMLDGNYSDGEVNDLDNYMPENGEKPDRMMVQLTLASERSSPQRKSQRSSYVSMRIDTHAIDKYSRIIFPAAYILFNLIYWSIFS

For the compound `NCCCS(=O)(=O)O` [Homo, 3-Aminopropane-1-sulfonic acid], the concentration for half-maximal inhibition (IC50) at human GABAC-ρ1 receptor [1] (co-applied with 1.5 µM GABA) is 40 ± 1 µM. For the same compound, the 50% inhibitory concentration (IC50) on human GABAC-ρ1 receptor [1] (co-applied with 3 µM GABA) is 90 ± 1.5 µM. Also, the IC50 at human GABAC-ρ1 receptor [1] (co-applied with 6 µM GABA) was found to be 410 ± 2.9 µM. Also, on human GABAC-ρ1 receptor [2], the “Hill coefficient (nH)” value is listed as 1.0; the midpoint of the response, the EC50, lay at 70 ± 1.1 µM; the “activation time of the currents (τact)” value is 1.8 ± 0.2 min; the “deactivation time (τdeac)” value worked out at 6.7 ± 2.2 min.
As for picrotoxin, the IC50 came to 100 ± 0.1 µM on human GABAC-ρ1 receptor [3] (setting [4]), 105 ± 0.3 µM at human GABAC-ρ1 receptor [3] (setting [5]) and 100 ± 0.8 µM at human GABAC-ρ1 receptor [3] (setting [6]).
For `NCCCC(=O)O` [GABA, γ-aminobutyric acid], at human GABAC-ρ1 receptor [2], the “Hill coefficient (nH)” value is given as 1.5, the “activation time of the currents (τact)” value turned out to be 1 ± 0.2 min and the “deactivation time (τdeac)” value amounted to 1.7 ± 0.5 min.
Consider `NCCS(=O)O` [Hypo, 2-Aminoethanesulfinic acid], for which the EC50 on human GABAC-ρ1 receptor [1] (co-applied with 1.5 µM GABA) worked out at 87 ± 1.5 µM. Also, at human GABAC-ρ1 receptor [1] (co-applied with 3 µM GABA), the EC50 amounted to 170 ± 1.7 µM. Besides, the EC50 on human GABAC-ρ1 receptor [1] (co-applied with 6 µM GABA) amounted to 480 ± 2.1 µM. At human GABAC-ρ1 receptor [2], the “Hill coefficient (nH)” value came to 2.2, the concentration for a half-maximal effect (EC50) turned out to be 3000 ± 1500 µM, the “activation time of the currents (τact)” value is listed as 1.5 ± 0.1 min and the “deactivation time (τdeac)” value is on record as 3.4 ± 1.1 min.
As to `O=S(=O)(O)CCO` [IA, 2-hydroxyethanesulfonic acid], the “effect on GABA-induced currents” value at human GABAC-ρ1 receptor [1] (co-application with GABA, data not shown) is “did not observe any effect”. Also, at human GABAC-ρ1 receptor [2] (compound perfused alone at the concentrations tested), the “activation of current (effect on receptor)” value is recorded as “did not show any affect”.
Take `CP(=O)(O)C1=CCNCC1` [TPMPA, Methyl(1,2,5,6-tetrahydropyridine-4-yl) phosphinic acid]: the IC50 came out at 1.2 ± 0.1 µM against human GABAC-ρ1 receptor [3] (setting [4]), 1.4 ± 0.1 µM at human GABAC-ρ1 receptor [3] (setting [5]) and 2 ± 0.2 µM against human GABAC-ρ1 receptor [3] (setting [6]).
